# What was measured:
# Assay type in all cases: functional
# HT-29 = experiment: Growth inhibition of human HT-29 cells after 48 hrs by SRB assay; settings: HT-29, 48 h
# CCRF-CEM = experiment: Growth inhibition of human CCRF-CEM cells after 48 hrs by SRB assay
# HL-60(TB) = experiment: Growth inhibition of human HL-60(TB) cells after 48 hrs by SRB assay; settings: HL-60, 48 h
# K562 = experiment: Growth inhibition of human K562 cells after 48 hrs by SRB assay; settings: K562, 48 h
# MOLT-4 = experiment: Growth inhibition of human MOLT4 cells after 48 hrs by SRB assay; settings: MOLT-4, 48 h
# RPMI-8226 = experiment: Growth inhibition of human RPMI8226 cells after 48 hrs by SRB assay; settings: RPMI-8226, 48 h
# SR = experiment: Growth inhibition of human SR cells after 48 hrs by SRB assay
# A549 = experiment: Growth inhibition of human A549 cells after 48 hrs by SRB assay; settings: A549, 48 h
# EKVX = experiment: Growth inhibition of human EKVX cells after 48 hrs by SRB assay
# HOP-62 = experiment: Growth inhibition of human HOP62 cells after 48 hrs by SRB assay; settings: HOP-62, 48 h
# HOP-92 = experiment: Growth inhibition of human HOP92 cells after 48 hrs by SRB assay; settings: HOP-92, 48 h
# NCI-H226 = experiment: Growth inhibition of human NCI-H226 cells after 48 hrs by SRB assay; settings: NCI-H226, 48 h
# NCI-H23 = experiment: Growth inhibition of human NCI-H23 cells after 48 hrs by SRB assay; settings: NCI-H23, 48 h
# NCI-H322M = experiment: Growth inhibition of human NCI-H322M cells after 48 hrs by SRB assay
# NCI-H460 = experiment: Growth inhibition of human NCI-H460 cells after 48 hrs by SRB assay; settings: NCI-H460, 48 h
# NCI-H522 = experiment: Growth inhibition of human NCI-H522 cells after 48 hrs by SRB assay; settings: NCI-H522, 48 h
# COLO 205 = experiment: Growth inhibition of human COLO205 cells after 48 hrs by SRB assay; settings: COLO 205, 48 h
# HCC 2998 = experiment: Growth inhibition of human HCC2998 cells after 48 hrs by SRB assay; settings: HCC 2998, 48 h
# HCT-116 = experiment: Growth inhibition of human HCT116 cells after 48 hrs by SRB assay; settings: HCT-116, 48 h
# HCT-15 = experiment: Growth inhibition of human HCT15 cells after 48 hrs by SRB assay; settings: HCT-15, 48 h
# LOX IMVI = experiment: Growth inhibition of human LOXIMVI cells after 48 hrs by SRB assay
# Malme-3M = experiment: Growth inhibition of human MALME-3M cells after 48 hrs by SRB assay
# M14 = experiment: Growth inhibition of human M14 cells after 48 hrs by SRB assay; settings: M14, 48 h
# SK-MEL-2 = experiment: Growth inhibition of human SK-MEL-2 cells after 48 hrs by SRB assay; settings: SK-MEL-2, 48 h
# SK-MEL-28 = experiment: Growth inhibition of human SK-MEL-28 cells after 48 hrs by SRB assay; settings: SK-MEL-28, 48 h
# SK-MEL-5 = experiment: Growth inhibition of human SK-MEL-5 cells after 48 hrs by SRB assay; settings: SK-MEL-5, 48 h
# UACC-257 = experiment: Growth inhibition of human UACC257 cells after 48 hrs by SRB assay; settings: UACC-257, 48 h
# UACC-62 = experiment: Growth inhibition of human UACC62 cells after 48 hrs by SRB assay; settings: UACC-62, 48 h
# IGROV-1 = experiment: Growth inhibition of human IGROV1 cells after 48 hrs by SRB assay; settings: IGROV-1, 48 h
# OVCAR-3 = experiment: Growth inhibition of human OVCAR-3 cells after 48 hrs by SRB assay; settings: OVCAR-3, 48 h
# OVCAR-4 = experiment: Growth inhibition of human OVCAR4 cells after 48 hrs by SRB assay; settings: OVCAR-4, 48 h
# OVCAR-5 = experiment: Growth inhibition of human OVCAR5 cells after 48 hrs by SRB assay; settings: OVCAR-5, 48 h
# OVCAR-8 = experiment: Growth inhibition of human OVCAR8 cells after 48 hrs by SRB assay; settings: OVCAR-8, 48 h
# SK-OV-3 = experiment: Growth inhibition of human SKOV3 cells after 48 hrs by SRB assay; settings: SK-OV-3, 48 h
# 786-0 = experiment: Growth inhibition of human 786-0 cells after 48 hrs by SRB assay; settings: 786-0, 48 h
# A498 = experiment: Growth inhibition of human A498 cells after 48 hrs by SRB assay; settings: A498, 48 h
# ACHN = experiment: Growth inhibition of human ACHN cells after 48 hrs by SRB assay
# CAKI-1 = experiment: Growth inhibition of human Caki1 cells after 48 hrs by SRB assay; settings: CAKI-1, 48 h
# RXF 393 = experiment: Growth inhibition of human […] cells after 48 hrs by SRB assay; settings: RXF 393, 48 h
# SN12C = experiment: Growth inhibition of human SN12C cells after 48 hrs by SRB assay
# TK-10 = experiment: Growth inhibition of human TK10 cells after 48 hrs by SRB assay; settings: TK-10, 48 h
# UO-31 = experiment: Growth inhibition of human UO31 cells after 48 hrs by SRB assay; settings: UO-31, 48 h
# PC-3 = experiment: Growth inhibition of human PC3 cells after 48 hrs by SRB assay; settings: PC-3, 48 h
# DU-145 = experiment: Growth inhibition of human DU145 cells after 48 hrs by SRB assay; settings: DU-145, 48 h
# MCF7 = experiment: Growth inhibition of human MCF7 cells after 48 hrs by SRB assay; settings: MCF7, 48 h
# NCI/ADR-RES = experiment: Growth inhibition of human NCI/ADR-RES cells after 48 hrs by SRB assay
# MDA-MB-231 = experiment: Growth inhibition of human MDA-MB-231 cells after 48 hrs by SRB assay; settings: MDA-MB-231, 48 h
# [1] = Growth inhibition of human Hs 578T cells after 48 hrs by SRB assay
# MDA-MB-435 = experiment: Growth inhibition of human MDA-MB-435 cells after 48 hrs by SRB assay; settings: MDA-MB-435, 48 h
# BT-549 = experiment: Growth inhibition of human BT549 cells after 48 hrs by SRB assay; settings: BT-549, 48 h
# T47D = experiment: Growth inhibition of human T47D cells after 48 hrs by SRB assay
# KM12 = experiment: Growth inhibition of human KM12 cells after 48 hrs by SRB assay; settings: KM12, 48 h
# SW-620 = experiment: Growth inhibition of human SW620 cells after 48 hrs by SRB assay; settings: SW-620, 48 h
# SF-268 = experiment: Growth inhibition of human SF268 cells after 48 hrs by SRB assay; settings: SF-268, 48 h
# SF-295 = experiment: Growth inhibition of human SF295 cells after 48 hrs by SRB assay; settings: SF-295, 48 h
# SF-539 = experiment: Growth inhibition of human SF539 cells after 48 hrs by SRB assay; settings: SF-539, 48 h
# SNB-19 = experiment: Growth inhibition of human SNB19 cells after 48 hrs by SRB assay; settings: SNB-19, 48 h
# SNB-75 = experiment: Growth inhibition of human SNB75 cells after 48 hrs by SRB assay; settings: SNB-75, 48 h
# U-251 = experiment: Growth inhibition of human U251 cells after 48 hrs by SRB assay; settings: U-251, 48 h
structure (smiles),measurement,setting,value
COc1ccc(NC(=O)n2nc(N)c3ccccc32)cc1OC,GI50,HT-29,48.2 µM
same,GI50,CCRF-CEM,36.7 µM
same,GI50,HL-60(TB),27.9 µM
same,GI50,K562,41.2 µM
same,GI50,MOLT-4,39.4 µM
same,GI50,RPMI-8226,21.1 µM
same,GI50,SR,29.3 µM
same,GI50,A549,45.8 µM
same,GI50,EKVX,54.1 µM
same,GI50,HOP-62,75.2 µM
same,GI50,HOP-92,24.6 µM
same,GI50,NCI-H226,83.1 µM
same,GI50,NCI-H23,83.5 µM
same,GI50,NCI-H322M,> 100 µM
same,GI50,NCI-H460,34.5 µM
same,GI50,NCI-H522,34.9 µM
same,GI50,COLO 205,85.9 µM
same,GI50,HCC 2998,61.1 µM
same,GI50,HCT-116,43.5 µM
same,GI50,HCT-15,44.1 µM
same,GI50,LOX IMVI,49.3 µM
same,GI50,Malme-3M,> 100 µM
same,GI50,M14,64.9 µM
same,GI50,SK-MEL-2,37.2 µM
same,GI50,SK-MEL-28,> 100 µM
same,GI50,SK-MEL-5,27.9 µM
same,GI50,UACC-257,73.6 µM
same,GI50,UACC-62,52.3 µM
same,GI50,IGROV-1,18.1 µM
same,GI50,OVCAR-3,92 µM
same,GI50,OVCAR-4,63.2 µM
same,GI50,OVCAR-5,45.5 µM
same,GI50,OVCAR-8,39.7 µM
same,GI50,SK-OV-3,> 100 µM
same,GI50,786-0,> 100 µM
same,GI50,A498,30.3 µM
same,GI50,ACHN,58.3 µM
same,GI50,CAKI-1,> 100 µM
same,GI50,RXF 393,95.2 µM
same,GI50,SN12C,> 100 µM
same,GI50,TK-10,92.4 µM
same,GI50,UO-31,28.5 µM
same,GI50,PC-3,35.5 µM
same,GI50,DU-145,73.1 µM
same,GI50,MCF7,29.5 µM
same,GI50,NCI/ADR-RES,37.6 µM
same,GI50,MDA-MB-231,53.6 µM
same,GI50,[1],43.3 µM
same,GI50,MDA-MB-435,> 100 µM
same,GI50,BT-549,25.9 µM
same,GI50,T47D,33 µM
same,GI50,KM12,67.9 µM
same,GI50,SW-620,> 100 µM
same,GI50,SF-268,49.6 µM
same,GI50,SF-295,37.6 µM
same,GI50,SF-539,95.9 µM
same,GI50,SNB-19,> 100 µM
same,GI50,SNB-75,30.6 µM
same,GI50,U-251,61.7 µM
Nc1nn(C(=O)Nc2c(F)cccc2F)c2ccccc12,GI50,HT-29,74.6 µM
same,GI50,HL-60(TB),33.2 µM
same,GI50,K562,< 100 µM
same,GI50,MOLT-4,32.7 µM
same,GI50,RPMI-8226,16.1 µM
same,GI50,SR,12.9 µM
same,GI50,A549,48.5 µM
same,GI50,EKVX,84 µM
same,GI50,HOP-62,51 µM
same,GI50,HOP-92,17.3 µM
same,GI50,NCI-H226,98.5 µM
same,GI50,NCI-H23,95.6 µM
same,GI50,NCI-H322M,< 100 µM
same,GI50,NCI-H460,33.4 µM
same,GI50,NCI-H522,55.1 µM
same,GI50,COLO 205,< 100 µM
same,GI50,HCC 2998,95.8 µM
same,GI50,HCT-116,34.8 µM
same,GI50,HCT-15,40.9 µM
same,GI50,LOX IMVI,49.3 µM
same,GI50,Malme-3M,< 100 µM
same,GI50,M14,74.7 µM
same,GI50,SK-MEL-2,< 100 µM
same,GI50,SK-MEL-28,56.3 µM
same,GI50,SK-MEL-5,39.7 µM
same,GI50,UACC-257,71.7 µM
same,GI50,UACC-62,43.9 µM
same,GI50,IGROV-1,7.7 µM
same,GI50,OVCAR-3,65.7 µM
same,GI50,OVCAR-4,57.8 µM
same,GI50,OVCAR-5,< 100 µM
same,GI50,OVCAR-8,44.2 µM
same,GI50,SK-OV-3,< 100 µM
same,GI50,786-0,< 100 µM
same,GI50,A498,31.4 µM
same,GI50,ACHN,50.1 µM
same,GI50,CAKI-1,45.3 µM
same,GI50,RXF 393,20.2 µM
same,GI50,SN12C,< 100 µM
same,GI50,TK-10,< 100 µM
same,GI50,UO-31,18.6 µM
same,GI50,PC-3,< 100 µM
same,GI50,DU-145,62.3 µM
same,GI50,MCF7,60 µM
same,GI50,NCI/ADR-RES,56.5 µM
same,GI50,MDA-MB-231,98.8 µM
same,GI50,[1],73 µM
same,GI50,MDA-MB-435,54.9 µM
same,GI50,BT-549,28.8 µM
same,GI50,T47D,68.7 µM
same,GI50,KM12,86.2 µM
same,GI50,SW-620,38.3 µM
same,GI50,SF-268,36.2 µM
same,GI50,SF-295,54.8 µM
same,GI50,SF-539,31.4 µM
same,GI50,SNB-19,< 100 µM
same,GI50,U-251,96.1 µM

# — ChEMBL document CHEMBL1152860, “Synthesis and antiproliferative activity of 3-amino-N-phenyl-1H-indazole-1-carboxamides” (2009)
